Where a SMILES comes first, the peptide text is derived from it. Bridges are numbered along the chain shown (N, C = ends). [ ]: non-standard residue; d: D form. The star is where a group is joined. Ileψ(thiazoline)Cys = CC[C@H](C)[C@H](N)C1=N[C@H](C(=O)*)CS1; dOrn = NCCC[C@@H](N)C(=O)O
Tests used:
Streptomyces sp. BG76 = experiment: Antibiotic sensibility of the strain; assay type: cell-based; parameters: key to Antibiotic sensibility: S: sensitive; R: resistant; conditions: for Antibiotic sensibility: amount given with each antibiotic (30 μg, 300 U, 10 μg, 10 U, 250 μg)
[1] = Solubility of the antibiotic; assay type: physicochemical; conditions: methanol and water
[2] = test system: Micrococcus luteus ATCC 381 (ML); experiment: Antimicrobial bioassay, paper filter disk technique (agar diffusion); assay type: cell-based
Procedure: (§1) The retention time of the main peaks D1 and D2 were 15.62 and 17.99 min, respectively. These fractions were checked again for both activities with mineral phosphate solubilization test and anti microbial bioassay, against ML, BS, PU and MR using the paper filter disk technique.
(§2) The purified Viridomycin (compound 1) was checked for anti microbial bioassay, against Micrococcus luteus ATCC 381 (ML), Bacillus subtilis ATCC 9524 (BS) and the phytopathogenic fungi Pythium ultimum (PU) and Mucor ramannianus NRRL 1829 (MR) using the paper filter disk technique.

Pythium ultimum (PU) = experiment: as above; assay type: cell-based
Procedure: as §1, §2

[3] = test system: Mucor ramannianus NRRL 1829 (MR); experiment: as above; assay type: cell-based
Procedure: as §1, §2

[4] = test system: Bacillus subtilis ATCC 9524 (BS); experiment: as above; assay type: cell-based
Procedure: as §1, §2

[5] = Mineral phosphate solubilization test
[6] = Mineral phosphate solubilization test; remark: listed apart in the source
[7] = filter disc i.d. 6 mm, c = 20 μg/mL, 20 μL/disc
[8] = HPLC peak of fraction D, FIG. 4
[9] = purified Compound 1 at final concentration 98.5 mg·mL^−1

With `CO[C@@H]1[C@@H](OC(N)=O)[C@@H](O)[C@H](Oc2ccc3c(O)c(NC(=O)c4ccc(O)c(CC=C(C)C)c4)c(=O)oc3c2C)OC1(C)C` [Novobiocine] the “Sensitivity of the strain to the antibiotic (in words)” value (“Sensitivity of the strain” for short) (Streptomyces sp. BG76) was “sensitive” and the Antibiotic sensibility (Streptomyces sp. BG76) was “S”.
In the case of Gentamycine, the “Sensitivity of the strain” value (Streptomyces sp. BG76) is reported as “sensitive” and the Antibiotic sensibility (Streptomyces sp. BG76) is reported as “S”.
In the case of “Tris (3-imino-4-oxo-cyclohexa-1,5-diene-carbaldehydro) iron (III) [Compound 1]”, the Solubility [1] is reported as “soluble in methanol and water”, the “Diameter of microbial growth inhibition zone” value [2, 7] is reported as 45 mm and the “Antimicrobial activity (in words)” value ([2]; on the standard media) is reported as “inhibited”. For the same molecule, the “Diameter of microbial growth inhibition zone” value (Pythium ultimum (PU); [7]) was 27 mm, the “Antimicrobial activity (in words)” value (Pythium ultimum (PU); on the standard media) was “inhibited” and the “Diameter of microbial growth inhibition zone” value [3, 7] was 38 mm. For the same molecule, the “Antimicrobial activity (in words)” value ([3]; on the standard media) was “inhibited”, the “Diameter of microbial growth inhibition zone” value [4, 7] was 29 mm and the “Antimicrobial activity (in words)” value ([4]; on the standard media) was “inhibited”. For the same molecule, the “Mineral phosphate solubilization activity (in words)” value [5, 8] was “mineral phosphate solubilization activities”, the “Concentration of solubilized Phosphate from RP” value [5, 9] was 63.7 µg/mL and the “Mineral phosphate solubilization activity (in words)” value [6, 8] was “mineral phosphate solubilization activities”. The “Concentration of solubilized Phosphate from TC” value [6, 9] was 135.2 µg/mL.
In the case of `CC(=O)OCC1=C(C(=O)O)N2C(=O)[C@@H](NC(=O)Cc3cccs3)[C@H]2SC1` [Cefalotin], the “Sensitivity of the strain” value (Streptomyces sp. BG76) is reported as “sensitive” and the Antibiotic sensibility (Streptomyces sp. BG76) is reported as “S”.
In the case of `NS(N)(=O)=O` [Sulfamides], the “Sensitivity of the strain” value (Streptomyces sp. BG76) is reported as “resistant” and the Antibiotic sensibility (Streptomyces sp. BG76) is reported as “R”.
With Polymyxin B the “Sensitivity of the strain” value (Streptomyces sp. BG76) was “sensitive” and the Antibiotic sensibility (Streptomyces sp. BG76) was “S”.
For `CC[C@H](C)[C@H](N)C1=N[C@H](C(=O)N[C@@H](CC(C)C)C(=O)N[C@H](CCC(=O)O)C(=O)N[C@H](C(=O)N[C@H]2CCCCNC(=O)[C@H](CC(N)=O)NC(=O)[C@@H](CC(=O)O)NC(=O)[C@H](Cc3cnc[nH]3)NC(=O)[C@@H](Cc3ccccc3)NC(=O)[C@H]([C@@H](C)CC)NC(=O)[C@@H](CCCN)NC2=O)[C@@H](C)CC)CS1` [Bacitracine] ({Ileψ(thiazoline)Cys}-L[dE]IK[dOrn]I[dF]H[dD]N; lactam 4-C), the “Sensitivity of the strain” value (Streptomyces sp. BG76) was “sensitive” and the Antibiotic sensibility (Streptomyces sp. BG76) was “S”.

Source: US9206212B2, “Actinomycete strain composition and its use” (CENTRE NATIONAL DE LA RECHERCHE SCIENTIFIQUE, priority 2011, dated 2015)
